Reference: patent US8759528B2, “Piperidine derivatives, pharmaceutical compositions and uses thereof” (Boehringer Ingelheim International GmbH, priority 2011, dated 2014)

Target: T1, human ACC2 (Homo sapiens, UniProt O00763)
T1 construct: lacks the 128 amino acids at the N-terminus for increased solubility (nt 385-6966 in Genbank entry AJ575592); made in house; host or cells: insect cells (baculoviral expression system)
Experiment: ACC2 spectrophotometric 384 well assay (NADH-linked, coupled lactate dehydrogenase/pyruvate kinase)
Assay type: biochemical
Conditions: hACC2 construct lacking the 128 N-terminal amino acids; 25° C., 340 nm, 15 minutes
Procedure: Spectrophotometric 384 Well Assay
Malonyl CoA formation by acetyl CoA carboxylases is stoichometrically linked to the consumption of ATP. ACC2 activity is measured in a NADH-linked kinetic method measuring ADP generated during the ACC reaction using a coupled lactate dehydrogenase/pyruvate kinase reaction.
For biological testing, a human ACC2 construct which lacks the 128 amino acids at the N-terminus for increased solubility (nt 385-6966 in Genbank entry AJ575592) is cloned. The protein is then expressed in insect cells using a baculoviral expression system. Protein purification is performed by anion exchange. All compounds are dissolved in dimethyl sulfoxide (DMSO) to a concentration of 10 mM.
Assay reactions are then carried out in 384-well plates, with hACC2 in an appropriate dilution and at final assay concentrations (f.c.) of 100 mM Tris (pH 7.5), 10 mM trisodium citrate, 25 mM KHCO3, 10 mM MgCl2, 0.5 mg/ml BSA, 3.75 mM reduced L-glutathione, 15 U/ml lactate dehydrogenase, 0.5 mM phosphoenolpyruvate, 15 U/ml pyruvate kinase, compounds at different concentrations at final DMSO concentrations of 1%.
The enzymatic reaction is then started by addition of a mixture of NADH, acetyl Coenzyme A (both […].) and ATP (500 uM f.c.). The decrease of the optical density (slope S) is then determined at 25° C. at a wavelength of 340 nm over 15 minutes in a spectrophotometric reader.
Each assay microtiter plate contains wells with vehicle instead of compound as controls for the non-inhibited enzyme (100% CTL; ‘HIGH’) and wells without acetyl-CoA as controls for non-specific NADH degradation (0% CTL; ‘LOW’).
The slope S is used for calculation of % CTL=(S(compound)−S(‘LOW’))/(S('HIGH)−S(‘LOW’))*100. Compounds will give values between 100% CTL (no inhibition) and 0% CTL (complete inhibition).
For IC50 value determination, the sample slope in the presence of the test compound after subtraction of the low controls (S(compound)−S(‘LOW’)) are used.
An IC50 value is derived from the compound slopes at different dosages after subtraction of the low controls (S(compound)−S(‘LOW’)) by non-linear regression curve fitting (equation y=(A+((B−A)/(1+((C/x)^D))))).

T1 sequence (O00763 129-2458 limits assumed): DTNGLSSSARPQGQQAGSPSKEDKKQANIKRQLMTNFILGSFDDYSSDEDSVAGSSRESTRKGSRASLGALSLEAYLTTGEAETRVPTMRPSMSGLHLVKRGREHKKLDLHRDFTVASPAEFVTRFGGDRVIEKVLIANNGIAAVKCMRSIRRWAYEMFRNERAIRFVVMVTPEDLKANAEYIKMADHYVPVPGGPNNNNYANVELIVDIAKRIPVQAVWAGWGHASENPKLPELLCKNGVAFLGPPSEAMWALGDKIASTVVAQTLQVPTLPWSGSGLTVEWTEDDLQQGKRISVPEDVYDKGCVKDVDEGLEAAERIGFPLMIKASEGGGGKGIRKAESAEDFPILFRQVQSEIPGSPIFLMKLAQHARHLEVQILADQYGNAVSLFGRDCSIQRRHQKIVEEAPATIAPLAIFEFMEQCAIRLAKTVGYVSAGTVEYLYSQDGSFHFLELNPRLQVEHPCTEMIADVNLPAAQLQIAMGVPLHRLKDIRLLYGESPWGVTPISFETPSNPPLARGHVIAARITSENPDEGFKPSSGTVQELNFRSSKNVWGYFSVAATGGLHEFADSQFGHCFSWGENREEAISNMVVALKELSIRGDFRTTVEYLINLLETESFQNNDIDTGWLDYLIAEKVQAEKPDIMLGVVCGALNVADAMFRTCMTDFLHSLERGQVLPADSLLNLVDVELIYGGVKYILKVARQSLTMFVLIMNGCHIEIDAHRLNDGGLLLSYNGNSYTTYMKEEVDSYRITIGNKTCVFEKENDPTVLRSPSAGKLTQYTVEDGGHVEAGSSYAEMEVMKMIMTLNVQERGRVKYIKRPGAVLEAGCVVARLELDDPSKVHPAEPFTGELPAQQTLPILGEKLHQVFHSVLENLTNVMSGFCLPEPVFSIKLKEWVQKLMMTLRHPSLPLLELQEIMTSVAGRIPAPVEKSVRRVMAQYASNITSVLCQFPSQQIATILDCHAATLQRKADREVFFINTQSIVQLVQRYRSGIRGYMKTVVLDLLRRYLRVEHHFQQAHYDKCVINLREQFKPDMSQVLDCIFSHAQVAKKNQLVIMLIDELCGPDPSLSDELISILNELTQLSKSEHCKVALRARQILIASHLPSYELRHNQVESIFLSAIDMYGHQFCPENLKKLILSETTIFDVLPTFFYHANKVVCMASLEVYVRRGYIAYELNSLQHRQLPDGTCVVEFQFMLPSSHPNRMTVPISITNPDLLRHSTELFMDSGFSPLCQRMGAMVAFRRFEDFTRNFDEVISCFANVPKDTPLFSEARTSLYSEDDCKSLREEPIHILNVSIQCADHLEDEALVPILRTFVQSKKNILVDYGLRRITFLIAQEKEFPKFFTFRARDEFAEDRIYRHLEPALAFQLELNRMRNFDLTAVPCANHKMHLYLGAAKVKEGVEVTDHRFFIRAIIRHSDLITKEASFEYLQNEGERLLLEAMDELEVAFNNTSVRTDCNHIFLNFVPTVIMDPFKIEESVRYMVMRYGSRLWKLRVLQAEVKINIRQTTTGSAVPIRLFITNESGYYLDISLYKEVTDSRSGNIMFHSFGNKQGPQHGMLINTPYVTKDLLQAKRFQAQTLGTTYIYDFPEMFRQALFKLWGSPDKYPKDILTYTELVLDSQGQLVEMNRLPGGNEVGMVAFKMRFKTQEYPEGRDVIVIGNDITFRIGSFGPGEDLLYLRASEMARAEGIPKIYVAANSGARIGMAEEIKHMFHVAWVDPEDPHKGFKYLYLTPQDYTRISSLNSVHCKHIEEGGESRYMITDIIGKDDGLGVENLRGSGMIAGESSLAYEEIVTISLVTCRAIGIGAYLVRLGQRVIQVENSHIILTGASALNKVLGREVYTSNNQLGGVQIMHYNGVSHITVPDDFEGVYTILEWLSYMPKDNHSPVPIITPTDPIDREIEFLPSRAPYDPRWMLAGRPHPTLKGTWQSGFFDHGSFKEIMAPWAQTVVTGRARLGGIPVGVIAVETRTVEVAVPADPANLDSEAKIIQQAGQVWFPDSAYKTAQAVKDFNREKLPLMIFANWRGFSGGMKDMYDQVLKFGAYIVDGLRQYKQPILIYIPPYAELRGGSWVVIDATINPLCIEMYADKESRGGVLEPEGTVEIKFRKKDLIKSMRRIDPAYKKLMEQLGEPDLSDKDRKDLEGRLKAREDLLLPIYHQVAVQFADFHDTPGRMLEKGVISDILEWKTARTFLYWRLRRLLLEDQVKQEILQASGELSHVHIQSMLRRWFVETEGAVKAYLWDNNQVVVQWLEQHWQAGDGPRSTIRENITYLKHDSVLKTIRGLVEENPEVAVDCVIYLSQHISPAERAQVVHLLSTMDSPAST

CCNC(=O)C(C)c1ccc(C2CCN(c3ccc(OCC)cc3)CC2)cc1 (stereo not drawn) [Example 1.1, 2-{-4-[1-(4-Ethoxy-phenyl)-piperidin-4-yl]-phenyl}-N-ethyl-propionamide]
IC50: 240 nM

CCNC(=O)C(C)c1ccc(C2CCN(c3ccc(OC4CC4)cc3)CC2)cc1 (stereo not drawn) [Example 1.2]
IC50: 210 nM

CCNC(=O)C(C)c1ccc(C2CCN(c3ccc(OCC4CC4)cc3)CC2)cc1 (stereo not drawn) [Example 1.3]
IC50: 240 nM

CCNC(=O)C(C)c1ccc(C2CCN(c3ccc(OC(C)CC)cc3)CC2)cc1 (stereo not drawn) [Example 1.4]
IC50: 890 nM

CCNC(=O)C(C)c1ccc(C2CCN(c3ccc(OC4CCC4)cc3)CC2)cc1 (stereo not drawn) [Example 1.5]
IC50: 120 nM

CCNC(=O)C(C)c1ccc(C2CCN(c3ccnc(OCC)c3)CC2)cc1 (stereo not drawn) [Example 1.6]
IC50: 510 nM

CCCOc1ccc(N2CCC(c3ccc(C(C)C(=O)NCC)cc3)CC2)c(OC)c1 (stereo not drawn) [Example 1.7]
IC50: 320 nM

CCCOc1ccc(N2CCC(c3ccc(C(C)C(=O)NCC)cc3)CC2)cc1 (stereo not drawn) [Example 1.8]
IC50: 180 nM

CCNC(=O)C(C)c1ccc(C2CCN(c3ccc(OC(C)C)cc3OC)CC2)cc1 (stereo not drawn) [Example 1.9]
IC50: 510 nM

CCNC(=O)C(C)c1ccc(C2CCN(c3ccc(OC4CC4)cc3OC)CC2)cc1 (stereo not drawn) [Example 1.11]
IC50: 520 nM

CCNC(=O)C(C)c1ccc(C2CCN(c3ccc(OCC)cc3F)CC2)cc1 (stereo not drawn) [Example 1.12]
IC50: 330 nM

CCOc1ccc(N2CCC(c3ccc(C(C)C(=O)NC4CC4)cc3)CC2)c(F)c1 (stereo not drawn) [Example 1.13]
IC50: 140 nM

CC(C(=O)NC1CC1)c1ccc(C2CCN(c3ccc(OCC4CC4)cc3)CC2)cc1 (stereo not drawn) [Example 1.14]
IC50: 80 nM

CCNC(=O)C(C)c1ccc(C2CCN(c3ccc(OCC4CC4)cc3OC)CC2)cc1 (stereo not drawn) [Example 2.1, 2-{-4-[1-(4-Cyclopropylmethoxy-2-methoxy-phenyl)-piperidin-4-yl]-phenyl}-N-ethyl-propionamide]
IC50: 750 nM

CCNC(=O)C(C)c1ccc(C2CCN(c3ccc(OC4CCC4)cc3OC)CC2)cc1 (stereo not drawn) [Example 2.2]
IC50: 250 nM

CC(C(=O)NC1CC1)c1ccc(C2CCN(c3ccc(OCC4CC4)cc3C#N)CC2)cc1 (stereo not drawn) [Example 3.1, 2-{4-[1-(2-Cyano-4-cyclopropylmethoxy-phenyl)-piperidin-4-yl]-phenyl}-N-cyclopropyl-propionamide]
IC50: 150 nM

CCNC(=O)C(C)c1ccc(C2CCN(c3ccc(OC)cc3C#N)CC2)cc1 (stereo not drawn) [Example 3.2]
IC50: 450 nM

CCOc1ccc(N2CCC(c3ccc(C(C)C(=O)NC4CC4)cc3)CC2)c(C#N)c1 (stereo not drawn) [Example 3.3]
IC50: 140 nM

CCCOc1ccc(N2CCC(c3ccc(C(C)C(=O)NC4CC4)cc3)CC2)c(C#N)c1 (stereo not drawn) [Example 3.4]
IC50: 120 nM

CCOc1ccc(N2CCC(c3ccc(C(C)C(=O)NC4CC4)cc3)CC2)cc1 (stereo not drawn) [Example 4.1, N-Cyclopropyl-2-{4-[1-(4-ethoxy-phenyl)-piperidin-4-yl]-phenyl}-propionamide]
IC50: 100 nM

CCNC(=O)Cc1ccc(C2CCN(c3ccnc(N(C)C4CCCC4)n3)CC2)cc1 [Example 4.2]
IC50: 400 nM

CCOc1ccc(N2CCC(c3ccc(C(C)C(=O)NC)cc3)CC2)cc1 (stereo not drawn) [Example 4.3]
IC50: 760 nM

CCOc1ccc(N2CCC(c3ccc(C(C)C(=O)N(C)C)cc3)CC2)cc1 (stereo not drawn) [Example 4.4]
IC50: 6650 nM

CCOc1ccc(N2CCC(c3ccc(C(C)C(=O)N(C)CC)cc3)CC2)cc1 (stereo not drawn) [Example 4.5]
IC50: 5210 nM

CCOc1ccc(N2CCC(c3ccc(C(C)C(=O)Nc4ccccc4)cc3)CC2)cc1 (stereo not drawn) [Example 4.6]
IC50: 80 nM

CN(c1nccc(N2CCC(c3ccc(CC(N)=O)cc3)CC2)n1)C1CCCC1 [Example 4.7]
IC50: 1260 nM

CCN(C)C(=O)Cc1ccc(C2CCN(c3ccnc(N(C)C4CCCC4)n3)CC2)cc1 [Example 4.8]
IC50: 12500 nM

CN(c1nccc(N2CCC(c3ccc(CC(=O)N4CCOCC4)cc3)CC2)n1)C1CCCC1 [Example 4.9]
IC50: 5530 nM

CN(c1nccc(N2CCC(c3ccc(CC(=O)NC4CCCC4)cc3)CC2)n1)C1CCCC1 [Example 4.10]
IC50: 4180 nM

CN(c1nccc(N2CCC(c3ccc(CC(=O)Nc4ccccc4)cc3)CC2)n1)C1CCCC1 [Example 4.11]
IC50: 720 nM

CN(c1nccc(N2CCC(c3ccc(CC(=O)NCc4ccccc4)cc3)CC2)n1)C1CCCC1 [Example 4.12]
IC50: 7940 nM

CC(C)CNC(=O)Cc1ccc(C2CCN(c3ccnc(N(C)C4CCCC4)n3)CC2)cc1 [Example 4.13]
IC50: 1860 nM

COCCNC(=O)Cc1ccc(C2CCN(c3ccnc(N(C)C4CCCC4)n3)CC2)cc1 [Example 4.14]
IC50: 4830 nM

CCCNC(=O)C(C)c1ccc(C2CCN(c3ccc(OCC)cc3)CC2)cc1 (stereo not drawn) [Example 4.15]
IC50: 290 nM

CCOc1ccc(N2CCC(c3ccc(C(C)C(=O)NCC4CC4)cc3)CC2)cc1 (stereo not drawn) [Example 4.16]
IC50: 650 nM

CCOc1ccc(N2CCC(c3ccc(C(C)C(N)=O)cc3)CC2)cc1 (stereo not drawn) [Example 4.17]
IC50: 770 nM

CCNC(=O)C(C)c1ccc(C2CCN(c3ccnc(N(C)C4CCCC4)n3)CC2)cc1 (stereo not drawn) [Example 5.1, 2-(4-{1-[2-(Cyclopentyl-methyl-amino)-pyrimidin-4-yl]-piperidin-4-yl}-phenyl)-N-ethyl-propionamide]
IC50: 370 nM

CCNC(=O)C(C)c1ccc(C2CCN(c3ccnc(N(C)C)n3)CC2)cc1 (stereo not drawn) [Example 5.2]
IC50: 630 nM

CCNC(=O)C(C)c1ccc(C2CCN(c3ccnc(NC(C)C)n3)CC2)cc1 (stereo not drawn) [Example 5.3]
IC50: 7630 nM

CCNC(=O)C(C)c1ccc(C2CCN(c3ccnc(OCC)n3)CC2)cc1 (stereo not drawn) [Example 6.1, 2-{4-[1-(2-Ethoxy-pyrimidin-4-yl)-piperidin-4-yl]-phenyl}-N-ethyl-propionamide]
IC50: 5480 nM

CCNC(=O)C(C)c1ccc(C2CCN(c3ccnc(OC(C)C)n3)CC2)cc1 (stereo not drawn) [Example 6.2]
IC50: 3050 nM

CCNC(=O)C(C)c1ccc(N2CCC(c3ccc(OCC)cc3)CC2)cc1 (stereo not drawn) [Example 7.1, 2-{4-[4-(4-Ethoxy-phenyl)-piperidin-1-yl]-phenyl}-N-ethyl-propionamide]
IC50: 1000 nM

CCNC(=O)C(C)c1ccc(N2CCC(c3ccc(OCC4CC4)cc3F)CC2)cc1 (stereo not drawn) [Example 7.2]
IC50: 1010 nM

CCOc1ccc(C2CCN(c3ccc(C(C)C(=O)NC4CC4)cc3)CC2)cc1 (stereo not drawn) [Example 7.3]
IC50: 890 nM

CCCOc1ccc(C2CCN(c3ccc(C(C)C(=O)NCC)cc3)CC2)cc1 (stereo not drawn) [Example 7.4]
IC50: 220 nM

CCNC(=O)C(C)c1ccc(N2CCC(c3ccc(OCC4CC4)cc3)CC2)cc1 (stereo not drawn) [Example 7.5]
IC50: 360 nM

CCNC(=O)C(C)c1ccc(N2CCC(c3cccc(OCC4CC4)c3)CC2)cc1 (stereo not drawn) [Example 7.6]
IC50: 2310 nM

CCNC(=O)C(C)c1ccc(N2CCC(c3ccc(OC(C)C)cc3)CC2)cc1 (stereo not drawn) [Example 7.7]
IC50: 340 nM

CCNC(=O)C(C)c1ccc(N2CCC(c3cccc(OC4CCC4)c3)CC2)cc1 (stereo not drawn) [Example 7.8]
IC50: 1650 nM

CCNC(=O)C(C)c1ccc(N2CCC(c3ccc(OC4CCC4)cc3)CC2)cc1 (stereo not drawn) [Example 7.9]
IC50: 120 nM

CCCOc1ccc(C2CCN(c3ccc(C(C)C(=O)NCC)cc3)CC2)c(C)c1 (stereo not drawn) [Example 7.10]
IC50: 840 nM

CCCOc1cccc(C2CCN(c3ccc(C(C)C(=O)NCC)cc3)CC2)c1 (stereo not drawn) [Example 7.11]
IC50: 3850 nM

CCNC(=O)C(C)c1ccc(N2CCC(c3cccc(OC(C)C)c3)CC2)cc1 (stereo not drawn) [Example 7.12]
IC50: 1800 nM

CCNC(=O)C(C)c1ccc(N2CCC(c3cccc(OCC)c3)CC2)cc1 (stereo not drawn) [Example 7.13]
IC50: 4840 nM
